Laboratory results published in patent US9273003B2, “Methods of treating lymphoma and rheumatoid arthritis with cyclopentyl (2S)-cyclohexyl[({6-[3-(hydroxyamino)-3-oxopropyl]pyridin-3-yl}methyl)amino]acetate” (GlaxoSmithKline Intellectual Property Development Limited, priority 2006, dated 2016).

Tests used:
[1] = molecular target: histone deacetylase activity (HeLa nuclear extract); assay: HDAC fluorescent activity assay (Fluor de Lys, Biomol); assay type: biochemical; details: IC50 allocated to ranges, read-out: HDAC activity
Protocol: The ability of compounds to inhibit histone deacetylase activities was measured using the commercially available HDAC fluorescent activity assay from Biomol. In brief, the Fluor de Lys™ substrate, a lysine with an epsilon-amino acetylation, is incubated with the source of histone deacetylase activity (HeLa nuclear extract) in the presence or absence of inhibitor. Deacetylation of the substrate sensitises the substrate to Fluor de Lys™ developer, which generates a fluorophore. Thus, incubation of the substrate with a source of HDAC activity results in an increase in signal that is diminished in the presence of an HDAC inhibitor.
Data are expressed as a percentage of the control, measured in the absence of inhibitor, with background signal being subtracted from all samples, as follows: % activity=[(S^i−B)/(S^o−B)]×100 where S^i is the signal in the presence of substrate, enzyme and inhibitor, S^o is the signal in the presence of substrate, enzyme and the vehicle in which the inhibitor is dissolved, and B is the background signal measured in the absence of enzyme.
IC50 values were determined by non-linear regression analysis, after fitting the results of eight data points to the equation for sigmoidal dose response with variable slope (% activity against log concentration of Compound), using Graphpad Prism software.
Histone deacetylase activity from crude nuclear extract derived from HeLa cells was used for screening. The preparation, purchased from 4C (Seneffe, Belgium), was prepared from HeLa cells harvested whilst in exponential growth phase. The nuclear extract was prepared according to the methodology described by J. D. Dignam, Nucl. Acid. Res., 1983, 11, 1475-1489, snap frozen in liquid nitrogen and stored at −80° C. The final buffer composition was 20 mM Hepes, 100 mM KCl, 0.2 mM EDTA, 0.5 mM DTT, 0.2 mM PMSF and 20% (v/v) glycerol.

HUT78 cells = assay: HUT cell inhibition assay (WST-1 cell viability); assay type: cell-based; details: Homo sapiens; HUT78 cells; IC50 allocated to ranges; read-out: HUT activity
Protocol: (§1) Cancer cell lines (U937 and HUT) growing in log phase were harvested and seeded at 1000-2000 cells/well (100 μl final volume) into 96-well tissue culture plates. Following 24 h of growth cells were treated with Compound. Plates were then re-incubated for a further 72-96 h before a WST-1 cell viability assay was conducted according to the suppliers (Roche Applied Science) instructions.
(§2) Data were expressed as a percentage inhibition of the control, measured in the absence of inhibitor, as follows: % inhibition=100−[(S^i/S^o)×100] where S^i is the signal in the presence of inhibitor and S^o is the signal in the presence of DMSO.
(§3) Dose response curves were generated from 8 concentrations (top final concentration 10 μM, with 3-fold dilutions), using 6 replicates.
(§4) IC50 values were determined by non-linear regression analysis, after fitting the results to the equation for sigmoidal dose response with variable slope (% activity against log concentration of Compound), using Graphpad Prism software.

U937 cells = assay: U937 cell inhibition assay (WST-1 cell viability); assay type: cell-based; details: Homo sapiens, U-937; U937 cells; IC50 allocated to ranges; read-out: U937 activity
Protocol: as §1, §2, §3, §4

IC50 [1] [nM] | IC50 (U937 cells) [nM] | SMILES | IC50 (HUT78 cells) [nM]
< 100 |  | CC(C)C[C@H](NCc1ccc(CCC(=O)NO)cc1)C(=O)O [Example 97] | 
< 100 |  | CC(N[C@H](C(=O)O)C1CCCCC1)c1ccc(/C=C/C(=O)NO)cc1 (stereo partly drawn) [Example 108] | 
101 to 1000 |  | O=C(/C=C/c1ccc(CN[C@H](C(=O)O)c2ccccc2)cc1)NO [Example 91] | 
101 to 1000 | < 330 | O=C(CCc1ccc(CN[C@H](C(=O)OC2CCCC2)c2ccccc2)cc1)NO [Example 39, Cyclopentyl (2S)-({4-[3-(hydroxyamino)-3-oxopropyl]benzyl}amino)(phenyl)acetate] | 331 to 3300
> 1000 | 331 to 3300 | CC(C)(C)[C@H](NCc1ccc(CCC(=O)NO)cc1)C(=O)OC1CCCC1 [Example 43, Cyclopentyl N-{4-[3-(hydroxyamino)-3-oxopropyl]benzyl}-3-methyl-L-valinate] | 331 to 3300
101 to 1000 |  | CC(C)C[C@@H](NCc1ccc(/C=C/C(=O)NO)cc1)C(=O)O [Example 92] | 
< 100 | < 330 | O=C(CCc1ccc(CN[C@H](C(=O)OC2CCCC2)C2CCCCC2)cn1)NO [Example 62, Cyclopentyl (2S)-cyclohexyl[({6-[3-(hydroxyamino)-3-oxopropyl]pyridin-3-yl}methyl)amino]acetate] | 331 to 3300
> 1000 |  | CC(C)(C)[C@H](NCc1ccc(CCC(=O)NO)cc1)C(=O)O [Example 100] | 
< 100 | < 330 | CC(C)C[C@H](NC(C)c1ccc(/C=C/C(=O)NO)cc1)C(=O)OC(C)(C)C (stereo partly drawn) [Example 85, tert-Butyl N-(1-{4-[(1E)-3-(hydroxyamino)-3-oxoprop-1-en-1-yl]phenyl}ethyl)-L-leucinate] | < 330
101 to 1000 | 331 to 3300 | O=C(/C=C/c1ccc(CN[C@H](CO)C(=O)OC2CCCC2)cc1)NO [Example 72, Cyclopentyl N-{4-[(1E)-3-(hydroxyamino)-3-oxoprop-1-en-1-yl]benzyl}-D-serinate] | 331 to 3300
< 100 | < 330 | CC(C)C[C@H](NCc1ccc(CCC(=O)NO)nc1)C(=O)OC(C)(C)C [Example 66, tert-Butyl N-({6-[3-(hydroxyamino)-3-oxopropyl]pyridin-3-yl}methyl)-L-leucinate] | 331 to 3300
101 to 1000 | < 330 | CC(C)C[C@H](NCc1ccc(CCC(=O)NO)cc1)C(=O)OC1CCCC1 [Example 34, Cyclopentyl N-{4-[3-(hydroxyamino)-3-oxopropyl]benzyl}-L-leucinate] | < 330
101 to 1000 | 331 to 3300 | CC(C)C[C@H](NCCc1ccc(/C=C/C(=O)NO)cc1)C(=O)OC(C)(C)C [Example 87, tert-Butyl N-(2-{4-[(1E)-3-(hydroxyamino)-3-oxoprop-1-en-1-yl]phenyl}ethyl)-L-leucinate] | 331 to 3300
> 1000 | < 330 | CC(C)C[C@H](NCc1ccc(CCC(=O)NO)cc1)C(=O)O[C@@H]1C[C@H](C)CC[C@H]1C(C)C [Example 45, (1R,2S,5R)-2-Isopropyl-5-methylcyclohexyl N-{4-[3-(hydroxyamino)-3-oxopropyl]benzyl}-L-leucinate] | 331 to 3300
< 100 | 331 to 3300 | CC(C)(C)OC(=O)[C@@H](NCc1ccc(/C=C/C(=O)NO)cc1)C1CCCCC1 [Example 32, tert-Butyl (2S)-cyclohexyl({4-[(1E)-3-(hydroxyamino)-3-oxoprop-1-en-1-yl]benzyl}amino)acetate] | 331 to 3300
101 to 1000 | 331 to 3300 | O=C(CCc1ccc(CN2CCNC(C(=O)OC3CCCC3)C2)cc1)NO (stereo not drawn) [Example 113, Cyclopentyl 4-{4-[3-(hydroxyamino)-3-oxopropyl]benzyl}piperazine-2-carboxylate] | 331 to 3300
< 100 | < 330 | CC(C)(C)OC(=O)[C@@H](NCc1ccc(/C=C/C(=O)NO)nc1)c1ccccc1 [Example 61, tert-Butyl (2S)-[({6-[(1E)-3-(hydroxyamino)-3-oxoprop-1-en-1-yl]pyridin-3-yl}methyl)amino](phenyl)acetate] | < 330
101 to 1000 | < 330 | O=C(CCc1ccc(CN[C@H](C(=O)OC2CCCC2)C2CCCCC2)nc1)NO [Example 70, Cyclopentyl (2S)-cyclohexyl[({5-[3-(hydroxyamino)-3-oxopropyl]pyridin-2-yl}methyl)amino]acetate] | 331 to 3300
< 100 |  | CC(C)C[C@H](NCc1ccc(/C=C/C(=O)NO)cc1)C(=O)O [Example 89] | 
> 1000 |  | CC[C@H](C)[C@H](NCc1ccc(CCC(=O)NO)cc1)C(=O)O [Example 109, N-{4-[3-(Hydroxyamino)-3-oxopropyl]benzyl}-L-isoleucine] | 
> 1000 |  | O=C(/C=C/c1ccc(CN2CCC(CN[C@H](C(=O)O)c3ccccc3)CC2)cc1)NO [Example 107] | 

IC50 [1] [nM] | IC50 (U937 cells) [nM] | SMILES | IC50 (HUT78 cells) [nM]
101 to 1000 | < 330 | O=C(/C=C/c1ccc(CN[C@H](C(=O)OCCN2CCOCC2)C2CCCCC2)cc1)NO [Example 30, 2-Morpholin-4-ylethyl (2S)-cyclohexyl({4-[(1E)-3-(hydroxyamino)-3-oxoprop-1-en-1-yl]benzyl}amino)acetate] | < 330
101 to 1000 | < 330 | CC(C)C[C@H](NCc1ccc(CNCc2ccc(CCC(=O)NO)cc2)cc1)C(=O)OC(C)(C)C [Example 78, tert-Butyl N-{4-[({4-[3-(hydroxyamino)-3-oxopropyl]benzyl}amino)methyl]benzyl}-L-leucinate] | 331 to 3300
< 100 |  | O=C(/C=C/c1ccc(CN[C@H](C(=O)O)C2CCCCC2)cn1)NO [Example 101] | 
101 to 1000 |  | CC(C)(C)OC[C@@H](NCc1ccc(/C=C/C(=O)NO)cc1)C(=O)O [Example 94] | 
> 1000 |  | CC(C)[C@H](NCc1ccc(CCC(=O)NO)cc1)C(=O)O [Example 99] | 
101 to 1000 |  | O=C(/C=C/c1ccc(CN[C@@H](C(=O)O)c2ccccc2)cc1)NO [Example 95] | 
101 to 1000 |  | CC(C)(C)OC[C@H](NCc1ccc(/C=C/C(=O)NO)cc1)C(=O)O [Example 90] | 
> 1000 |  | O=C(CCc1ccc(CN[C@H](C(=O)O)c2ccccc2)cc1)NO [Example 98] | 
< 100 |  | CC(C)(C)OC(=O)[C@@H](NCc1ccc(CCC(=O)NO)nc1)C1CCCCC1 [Example 63, tert-Butyl (2S)-cyclohexyl[({6-[3-(hydroxyamino)-3-oxopropyl]pyridin-3-yl}methyl)amino]acetate] | 
101 to 1000 |  | O=C(CCc1ccc(CN[C@H](C(=O)O)C2CCCCC2)nc1)NO [Example 104] | 
< 100 |  | O=C(CCc1ccc(CN[C@H](C(=O)O)C2CCCCC2)cn1)NO [Example 103] | 
> 1000 |  | O=C(/C=C/c1cccc(CNCC2CCC(CN[C@H](C(=O)O)C3CCCCC3)CC2)c1)NO (stereo partly drawn) [Example 105] | 
< 100 |  | CC(C)C[C@H](NC(C)c1ccc(/C=C/C(=O)NO)cc1)C(=O)O (stereo partly drawn) [Example 112, N-(1-{4-[(1E)-3-(Hydroxyamino)-3-oxoprop-1-en-1-yl]phenyl}ethyl)-L-leucine] | 
101 to 1000 |  | O=C(/C=C/c1ccc(CN[C@@H](C(=O)O)C2CCCCC2)cc1)NO [Example 93] | 
 | > 3300 | CC(C)(C)OC(=O)[C@@H](NCc1cccc(CCC(=O)NO)c1)c1ccccc1 [Example 49, tert-Butyl (2S)-({3-[3-(hydroxyamino)-3-oxopropyl]benzyl}amino)(phenyl)acetate] | > 3300
101 to 1000 |  | O=C(CCc1ccc(CN[C@H](C(=O)O)C2CCCCC2)cc1)NO [Example 96] | 
101 to 1000 |  | O=C(/C=C/c1ccc(CN2CCC(N[C@H](C(=O)O)C3CCCCC3)CC2)cc1)NO [Example 106] | 
> 1000 |  | O=C(CCc1ccc(CN2CCNC(C(=O)O)C2)cc1)NO (stereo not drawn) [Example 114, 4-{4-[3-(Hydroxyamino)-3-oxopropyl]benzyl}piperazine-2-carboxylic acid] | 
101 to 1000 |  | CC(C)C[C@H](NCc1ccc(CCC(=O)NO)nc1)C(=O)O [Example 110, N-({6-[3-(hydroxyamino)-3-oxopropyl]pyridin-3-yl}methyl)-L-leucine] | 
< 100 |  | CC(C)C[C@H](NCc1ccc(/C=C/C(=O)NO)nc1)C(=O)O [Example 102] | 
